Data reported in ChEMBL document CHEMBL1135206, “Albumin affinity tags increase peptide half-life in vivo” (Bioorg Med Chem Lett, 2002).
pIC50: −log10 of the molar value. *1 amine or outer side, *2 acyl side, *3 side chain or, on linkers, in order; H or OH if unused. Where a SMILES comes first, the peptide text is derived from it. Bridges are numbered along the chain shown (N, C = ends). [ ]: non-standard residue; d: D form. The star is where a group is joined. X3 = C[C@@H](C(=O)[*:2])N(Cc1ccccc1OC(F)(F)F)[*:1]; X5 = C[C@@H](C(=O)[*:2])N(Cc1cccc2ccccc12)[*:1]; 2Naphthylsulfonyl = O=S(=O)(c1ccc2ccccc2c1)*; X2 = O=C(CCC(=O)*)NS(=O)(=O)c1ccc2ccccc2c1; Benzoyl(4-Ph) = O=C(c1ccc(-c2ccccc2)cc1)*; Quinoline3carbonyl = O=C(c1cnc2ccccc2c1)*; X6 = O=C(c1ccc(-c2ccccc2[N+](=O)[O-])o1)*; Mts = Cc1cc(C)c(S(=O)(=O)*)c(C)c1; Quinaldoyl = O=C(c1ccc2ccccc2n1)*; NH(4-Cl-phenyl) = Clc1ccc(N*)cc1; CO = O=C([*:1])[*:2]; X4 = Cc1cccc(N*)c1

Columns and labels:
[1] = target: T1, Coagulation factor VII (Homo sapiens, UniProt P08709); test: Inhibition of amino terminally biotinylated E-76 peptide binding to immobilized fVIIa
T1 sequence (P08709 whole entry): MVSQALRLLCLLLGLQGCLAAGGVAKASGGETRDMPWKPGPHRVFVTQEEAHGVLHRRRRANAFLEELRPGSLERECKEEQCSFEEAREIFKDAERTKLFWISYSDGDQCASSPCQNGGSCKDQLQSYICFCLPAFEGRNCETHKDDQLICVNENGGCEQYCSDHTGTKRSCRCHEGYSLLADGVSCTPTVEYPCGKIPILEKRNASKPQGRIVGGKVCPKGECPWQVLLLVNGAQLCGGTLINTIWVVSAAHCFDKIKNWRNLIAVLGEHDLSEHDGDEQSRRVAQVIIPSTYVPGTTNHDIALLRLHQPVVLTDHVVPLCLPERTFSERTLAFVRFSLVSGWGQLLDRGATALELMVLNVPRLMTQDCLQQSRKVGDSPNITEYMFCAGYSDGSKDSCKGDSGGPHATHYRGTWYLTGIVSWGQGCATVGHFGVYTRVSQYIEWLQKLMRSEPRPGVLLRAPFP

[2] = target: Albumin (Homo sapiens, UniProt P02768); test: In vitro binding affinity for human serum albumin.; design: unit not given here
[3] = Clearance in male New Zealand white rabbits after administration via an indwelling catheter in an ear vein at 5 mg/kg; format: ADME, organism-based, Oryctolagus cuniculus; design: dose 5 mg/kg; details: rabbit, in vivo, iv
[4] = Mean retention time in male New Zealand white rabbits after administration via an indwelling catheter in an ear vein at 5 mg/kg; format: ADME, organism-based, Oryctolagus cuniculus; design: dose 5 mg/kg; details: rabbit, in vivo, iv
[5] = Plasma half-life in male New Zealand white rabbits after administration via an indwelling catheter in an ear vein at 5 mg/kg; format: ADME, organism-based, Oryctolagus cuniculus; design: dose 5 mg/kg; details: rabbit, iv
[6] = Plasma half-life in male New Zealand white rabbits after i.v. administration at 2.0 mg/kg; format: ADME, organism-based, Oryctolagus cuniculus; design: dose 2 mg/kg, route intravenous; details: rabbit, iv
[7] = Clearance in male New Zealand white rabbits after i.v. administration at 2.0 mg/kg; format: ADME, organism-based, Oryctolagus cuniculus; design: dose 2 mg/kg, route intravenous; details: rabbit, in vivo, iv
[8] = Mean retention time in male New Zealand white rabbits after i.v. administration at 2.0 mg/kg; format: ADME, organism-based, Oryctolagus cuniculus; design: dose 2 mg/kg, route intravenous; details: rabbit, in vivo, iv

Chain of Albumin (P02768 whole entry): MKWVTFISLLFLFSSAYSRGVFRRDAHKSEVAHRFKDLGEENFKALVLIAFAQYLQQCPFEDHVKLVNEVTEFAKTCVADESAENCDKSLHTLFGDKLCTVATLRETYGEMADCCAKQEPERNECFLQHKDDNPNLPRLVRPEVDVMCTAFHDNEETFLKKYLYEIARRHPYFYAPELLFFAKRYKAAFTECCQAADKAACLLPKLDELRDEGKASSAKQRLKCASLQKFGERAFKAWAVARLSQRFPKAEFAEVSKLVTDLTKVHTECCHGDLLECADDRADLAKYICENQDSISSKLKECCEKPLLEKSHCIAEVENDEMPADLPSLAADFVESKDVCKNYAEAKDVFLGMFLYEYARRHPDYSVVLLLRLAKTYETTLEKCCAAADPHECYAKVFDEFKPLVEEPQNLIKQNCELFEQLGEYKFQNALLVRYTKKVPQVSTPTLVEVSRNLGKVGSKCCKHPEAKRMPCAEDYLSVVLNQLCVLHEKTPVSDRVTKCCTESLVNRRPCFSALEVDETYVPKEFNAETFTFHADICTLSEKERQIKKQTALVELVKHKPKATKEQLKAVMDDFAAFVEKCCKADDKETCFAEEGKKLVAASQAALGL

Row | pIC50 [1] | Binding affinity [2] | SMILES | other results
1 | 7.69 | 0.92 | CC[C@H](C)[C@@H]1NC(=O)[C@H](CCCNC(=N)N)NC(=O)[C@@H]2CCCN2C(=O)[C@H](CC(N)=O)NC(=O)[C@H](CC(=O)O)NC(=O)[C@@H](NC(=O)[C@H](CC(C)C)NC(=O)[C@H](C)NS(=O)(=O)c2ccc3ccccc3c2)CSSC[C@@H](C(=O)N[C@@H](CCC(N)=O)C(=O)N[C@@H](Cc2ccccc2)C(=O)N[C@H](C(=O)N[C@@H](CCC(=O)O)C(=O)NCC(N)=O)C(C)C)NC(=O)[C@H](Cc2ccc(O)cc2)NC(=O)[C@H](Cc2c[nH]c3ccccc23)NC(=O)[C@H](CCCNC(=N)N)NC(=O)[C@H](CC(=O)O)NC1=O (2Naphthylsulfonyl-ALCDNPRIDRWYCQFVEG-NH2; disulfide 3-13) | 
2 | 8.96 | 0.21 | CC[C@H](C)[C@@H]1NC(=O)[C@H](CCCN=C(N)N)NC(=O)[C@@H]2CCCN2C(=O)[C@H](CC(N)=O)NC(=O)[C@H](CC(=O)O)NC(=O)[C@@H](NC(=O)[C@H](CC(C)C)NC(=O)[C@H](C)NC(C)=O)CSSC[C@@H](C(=O)N[C@@H](CCC(N)=O)C(=O)N[C@@H](Cc2ccccc2)C(=O)N[C@H](C(=O)N[C@@H](CCC(=O)O)C(=O)NCC(N)=O)C(C)C)NC(=O)[C@H](Cc2ccc(O)cc2)NC(=O)[C@H](Cc2c[nH]c3ccccc23)NC(=O)[C@H](CCCN=C(N)N)NC(=O)[C@H](CC(=O)O)NC1=O (Ac-ALCDNPRIDRWYCQFVEG-NH2; disulfide 3-13) | clearance [3]: 33 mL/min/kg; MRT [4]: 3.2 min; half-life [5]: 5 min
3 | 7.87 | 0.93 | CC[C@H](C)[C@@H]1NC(=O)[C@H](CCCN=C(N)N)NC(=O)[C@@H]2CCCN2C(=O)[C@H](CC(N)=O)NC(=O)[C@H](CC(=O)O)NC(=O)[C@@H](NC(=O)[C@H](CC(C)C)NC(=O)[C@H](C)NCc2ccccc2OC(F)(F)F)CSSC[C@@H](C(=O)N[C@@H](CCC(N)=O)C(=O)N[C@@H](Cc2ccccc2)C(=O)N[C@H](C(=O)N[C@@H](CCC(=O)O)C(=O)NCC(N)=O)C(C)C)NC(=O)[C@H](Cc2ccc(O)cc2)NC(=O)[C@H](Cc2c[nH]c3ccccc23)NC(=O)[C@H](CCCN=C(N)N)NC(=O)[C@H](CC(=O)O)NC1=O (H-[X3]LCDNPRIDRWYCQFVEG-NH2; disulfide 3-13) | 
4 | 8.80 | 0.69 | CC[C@H](C)[C@@H]1NC(=O)[C@H](CCCNC(=N)N)NC(=O)[C@@H]2CCCN2C(=O)[C@H](CC(N)=O)NC(=O)[C@H](CC(=O)O)NC(=O)[C@@H](NC(=O)[C@H](CC(C)C)NC(=O)[C@H](C)NCc2cccc3ccccc23)CSSC[C@@H](C(=O)N[C@@H](CCC(N)=O)C(=O)N[C@@H](Cc2ccccc2)C(=O)N[C@H](C(=O)N[C@@H](CCC(=O)O)C(=O)NCC(N)=O)C(C)C)NC(=O)[C@H](Cc2ccc(O)cc2)NC(=O)[C@H](Cc2c[nH]c3ccccc23)NC(=O)[C@H](CCCNC(=N)N)NC(=O)[C@H](CC(=O)O)NC1=O (H-[X5]LCDNPRIDRWYCQFVEG-NH2; disulfide 3-13) | 
5 | 8.00 | 0.82 | CC[C@H](C)[C@@H]1NC(=O)[C@H](CCCNC(=N)N)NC(=O)[C@@H]2CCCN2C(=O)[C@H](CC(N)=O)NC(=O)[C@H](CC(=O)O)NC(=O)[C@@H](NC(=O)[C@H](CC(C)C)NC(=O)[C@H](C)NS(=O)(=O)c2c(C)cc(C)cc2C)CSSC[C@@H](C(=O)N[C@@H](CCC(N)=O)C(=O)N[C@@H](Cc2ccccc2)C(=O)N[C@H](C(=O)N[C@@H](CCC(=O)O)C(=O)NCC(N)=O)C(C)C)NC(=O)[C@H](Cc2ccc(O)cc2)NC(=O)[C@H](Cc2c[nH]c3ccccc23)NC(=O)[C@H](CCCNC(=N)N)NC(=O)[C@H](CC(=O)O)NC1=O (Mts-ALCDNPRIDRWYCQFVEG-NH2; disulfide 3-13) | 
6 | 8.54 | 0.64 | CC[C@H](C)[C@@H]1NC(=O)[C@H](CCCN=C(N)N)NC(=O)[C@@H]2CCCN2C(=O)[C@H](CC(N)=O)NC(=O)[C@H](CC(=O)O)NC(=O)[C@@H](NC(=O)[C@H](CC(C)C)NC(=O)[C@H](C)NC(=O)c2ccc3ccccc3n2)CSSC[C@@H](C(=O)N[C@@H](CCC(N)=O)C(=O)N[C@@H](Cc2ccccc2)C(=O)N[C@H](C(=O)N[C@@H](CCC(=O)O)C(=O)NCC(N)=O)C(C)C)NC(=O)[C@H](Cc2ccc(O)cc2)NC(=O)[C@H](Cc2c[nH]c3ccccc23)NC(=O)[C@H](CCCN=C(N)N)NC(=O)[C@H](CC(=O)O)NC1=O (Quinaldoyl-ALCDNPRIDRWYCQFVEG-NH2; disulfide 3-13) | 
7 | 7.93 | 0.64 | CC[C@H](C)[C@@H]1NC(=O)[C@H](CCCN=C(N)N)NC(=O)[C@@H]2CCCN2C(=O)[C@H](CC(N)=O)NC(=O)[C@H](CC(=O)O)NC(=O)[C@@H](NC(=O)[C@H](CC(C)C)NC(=O)[C@H](C)NC(=O)c2cnc3ccccc3c2)CSSC[C@@H](C(=O)N[C@@H](CCC(N)=O)C(=O)N[C@@H](Cc2ccccc2)C(=O)N[C@H](C(=O)N[C@@H](CCC(=O)O)C(=O)NCC(N)=O)C(C)C)NC(=O)[C@H](Cc2ccc(O)cc2)NC(=O)[C@H](Cc2c[nH]c3ccccc23)NC(=O)[C@H](CCCN=C(N)N)NC(=O)[C@H](CC(=O)O)NC1=O (Quinoline3carbonyl-ALCDNPRIDRWYCQFVEG-NH2; disulfide 3-13) | 
8 | 9.00 | 0.97 | CC[C@H](C)[C@@H]1NC(=O)[C@H](CCCN=C(N)N)NC(=O)[C@@H]2CCCN2C(=O)[C@H](CC(N)=O)NC(=O)[C@H](CC(=O)O)NC(=O)[C@@H](NC(=O)[C@H](CC(C)C)NC(=O)[C@H](C)NC(=O)CCC(=O)NS(=O)(=O)c2ccc3ccccc3c2)CSSC[C@@H](C(=O)N[C@@H](CCC(N)=O)C(=O)N[C@@H](Cc2ccccc2)C(=O)N[C@H](C(=O)N[C@@H](CCC(=O)O)C(=O)NCC(N)=O)C(C)C)NC(=O)[C@H](Cc2ccc(O)cc2)NC(=O)[C@H](Cc2c[nH]c3ccccc23)NC(=O)[C@H](CCCN=C(N)N)NC(=O)[C@H](CC(=O)O)NC1=O (X2-ALCDNPRIDRWYCQFVEG-NH2; disulfide 3-13) | half-life [6]: 30 min; clearance [7]: 1.6 mL/min/kg; MRT [8]: 35 min
9 | 9.00 | 0.79 | CC[C@H](C)[C@@H]1NC(=O)[C@H](CCCNC(=N)N)NC(=O)[C@@H]2CCCN2C(=O)[C@H](CC(N)=O)NC(=O)[C@H](CC(=O)O)NC(=O)[C@@H](NC(=O)[C@H](CC(C)C)NC(=O)[C@H](C)NC(=O)c2ccc(-c3ccccc3[N+](=O)[O-])o2)CSSC[C@@H](C(=O)N[C@@H](CCC(N)=O)C(=O)N[C@@H](Cc2ccccc2)C(=O)N[C@H](C(=O)N[C@@H](CCC(=O)O)C(=O)NCC(N)=O)C(C)C)NC(=O)[C@H](Cc2ccc(O)cc2)NC(=O)[C@H](Cc2c[nH]c3ccccc23)NC(=O)[C@H](CCCNC(=N)N)NC(=O)[C@H](CC(=O)O)NC1=O (X6-ALCDNPRIDRWYCQFVEG-NH2; disulfide 3-13) | 
10 | 8.40 | 0.62 | CC[C@H](C)[C@@H]1NC(=O)[C@H](CCCN=C(N)N)NC(=O)[C@@H]2CCCN2C(=O)[C@H](CC(N)=O)NC(=O)[C@H](CC(=O)O)NC(=O)[C@@H](NC(=O)[C@H](CC(C)C)NC(=O)[C@H](C)NC(=O)c2ccc(-c3ccccc3)cc2)CSSC[C@@H](C(=O)N[C@@H](CCC(N)=O)C(=O)N[C@@H](Cc2ccccc2)C(=O)N[C@H](C(=O)N[C@@H](CCC(=O)O)C(=O)NCC(N)=O)C(C)C)NC(=O)[C@H](Cc2ccc(O)cc2)NC(=O)[C@H](Cc2c[nH]c3ccccc23)NC(=O)[C@H](CCCN=C(N)N)NC(=O)[C@H](CC(=O)O)NC1=O ({Benzoyl(4-Ph)}-ALCDNPRIDRWYCQFVEG-NH2; disulfide 3-13) | clearance [3]: 4.3 mL/min/kg; MRT [4]: 17 min; half-life [5]: 15 min
11 | 7.87 | 0.65 | CC[C@H](C)[C@@H]1NC(=O)[C@H](CCCN=C(N)N)NC(=O)[C@@H]2CCCN2C(=O)[C@H](CC(N)=O)NC(=O)[C@H](CC(=O)O)NC(=O)[C@@H](NC(=O)[C@H](CC(C)C)NC(=O)[C@H](C)NC(=O)Nc2ccc(Cl)cc2)CSSC[C@@H](C(=O)N[C@@H](CCC(N)=O)C(=O)N[C@@H](Cc2ccccc2)C(=O)N[C@H](C(=O)N[C@@H](CCC(=O)O)C(=O)NCC(N)=O)C(C)C)NC(=O)[C@H](Cc2ccc(O)cc2)NC(=O)[C@H](Cc2c[nH]c3ccccc23)NC(=O)[C@H](CCCN=C(N)N)NC(=O)[C@H](CC(=O)O)NC1=O ({NH(4-Cl-phenyl)-CO}-ALCDNPRIDRWYCQFVEG-NH2; disulfide 3-13) | 
12 | 8.74 | 0.59 | CC[C@H](C)[C@@H]1NC(=O)[C@H](CCCNC(=N)N)NC(=O)[C@@H]2CCCN2C(=O)[C@H](CC(N)=O)NC(=O)[C@H](CC(=O)O)NC(=O)[C@@H](NC(=O)[C@H](CC(C)C)NC(=O)[C@H](C)NC(=O)Nc2cccc(C)c2)CSSC[C@@H](C(=O)N[C@@H](CCC(N)=O)C(=O)N[C@@H](Cc2ccccc2)C(=O)N[C@H](C(=O)N[C@@H](CCC(=O)O)C(=O)NCC(N)=O)C(C)C)NC(=O)[C@H](Cc2ccc(O)cc2)NC(=O)[C@H](Cc2c[nH]c3ccccc23)NC(=O)[C@H](CCCNC(=N)N)NC(=O)[C@H](CC(=O)O)NC1=O ({X4-CO}-ALCDNPRIDRWYCQFVEG-NH2; disulfide 3-13) | 
